*1 amine or outer side, *2 acyl side, *3 side chain or, on linkers, in order; H or OH if unused. Where a SMILES comes first, the peptide text is derived from it. Bridges are numbered along the chain shown (N, C = ends). [ ]: non-standard residue; d: D form. The star is where a group is joined. hPhe(3,5-F2-4-CF3) = N[C@@H](CCc1cc(F)c(C(F)(F)F)c(F)c1)C(=O)O; NPrPhe(4-CF3) = CCCN[C@@H](Cc1ccc(C(F)(F)F)cc1)C(=O)O; NMeAbu(4,4,4-F3) = CN[C@@H](CC(F)(F)F)C(=O)O; NMeGly(cPent) = CN[C@H](C(=O)O)C1CCCC1; Ac4c(3,3-F2) = NC1(C(=O)O)CC(F)(F)C1; X11 = CCC[C@](C)(N[*:1])C(=O)[*:2]; αMeCha = C[C@](N)(CC1CCCCC1)C(=O)O; Nva(3-Et) = CCC(CC)[C@H](N)C(=O)O; NMeD = CN[C@@H](CC(=O)O)C(=O)O; Ac4c(3-oxa) = NC1(C(=O)O)COC1; NMeL = CN[C@@H](CC(C)C)C(=O)O; αMeL = CC(C)C[C@](C)(N)C(=O)O; αMeV = CC(C)[C@](C)(N)C(=O)O; αMeS = C[C@](N)(CO)C(=O)O; Iva = CC[C@](C)(N)C(=O)O; Morpholide = C1CN(*)CCO1; Ac5c = NC1(C(=O)O)CCCC1; Aze = O=C(O)[C@@H]1CCN1; Sar = CNCC(=O)O; tBu = CC(C)(C)*; Allyl = C=CC*
How the values were obtained:
[1] = biological target: GDP-bound KRAS wild-type protein (Homo sapiens, UniProt P01116); experiment: Binding to KRAS by surface plasmon resonance (SPR), Single Cycle Kinetics; conditions: SPR Single Cycle Kinetics, GDP-bound KRAS wild-type protein, 1:1 binding model; read-out: KRAS KD
Sequence of GDP-bound KRAS wild-type protein (P01116 whole entry): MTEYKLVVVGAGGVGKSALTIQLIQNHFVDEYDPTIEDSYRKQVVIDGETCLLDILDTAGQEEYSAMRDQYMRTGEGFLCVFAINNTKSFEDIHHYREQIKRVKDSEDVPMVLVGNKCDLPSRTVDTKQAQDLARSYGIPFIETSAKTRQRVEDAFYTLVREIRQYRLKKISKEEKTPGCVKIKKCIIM

[2] = biological target: GDP-bound NRAS wild-type protein (Homo sapiens, UniProt P01111); experiment: Binding to NRAS by surface plasmon resonance (SPR), Single Cycle Kinetics; conditions: SPR, GDP-bound NRAS wild-type protein vs GDP-bound KRAS wild-type protein
Sequence of GDP-bound NRAS wild-type protein (P01111 whole entry): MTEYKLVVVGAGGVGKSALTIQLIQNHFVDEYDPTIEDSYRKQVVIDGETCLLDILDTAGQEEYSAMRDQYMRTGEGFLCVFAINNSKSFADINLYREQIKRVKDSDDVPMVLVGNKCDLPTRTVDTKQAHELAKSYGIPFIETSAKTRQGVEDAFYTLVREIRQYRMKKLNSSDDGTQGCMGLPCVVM

[3] = biological target: GDP-bound HRAS wild-type protein (Homo sapiens, UniProt P01112); experiment: Binding to HRAS by surface plasmon resonance (SPR), Single Cycle Kinetics; conditions: SPR, GDP-bound HRAS wild-type protein vs GDP-bound KRAS wild-type protein
Sequence of GDP-bound HRAS wild-type protein (P01112 whole entry): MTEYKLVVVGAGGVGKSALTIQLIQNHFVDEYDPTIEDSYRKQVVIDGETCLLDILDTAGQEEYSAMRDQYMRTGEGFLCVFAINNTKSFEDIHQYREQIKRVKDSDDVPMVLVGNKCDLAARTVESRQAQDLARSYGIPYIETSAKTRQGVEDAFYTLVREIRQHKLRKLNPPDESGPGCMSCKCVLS

SMILES | Kd [1] [nM] | NRAS/KRAS (ratio of KD value with respect to NRAS to KD value with respect to KRAS) [2] | HRAS/KRAS (ratio of KD value with respect to HRAS to KD value with respect to KRAS) [3]
CCCN1C(=O)[C@@H]2CCN2C(=O)CN(C)C(=O)[C@H]([C@@H](C)CC)NC(=O)[C@H](CC(C)C)N(C)C(=O)C[C@@H](C(=O)N2CCOCC2)N(C)C(=O)[C@H](C2CCCC2)N(C)C(=O)[C@](C)(CCC)NC(=O)[C@@H]2CCCN2C(=O)[C@H](CCc2cc(F)c(C(F)(F)F)c(F)c2)NC(=O)CN(C)C(=O)[C@@H]1Cc1ccc(C(F)(F)F)cc1 [PP0794] ([NMeL]I[Sar][Aze][NPrPhe(4-CF3)][Sar][hPhe(3,5-F2-4-CF3)]P[X11][NMeGly(cPent)][NMeD]-Morpholide; lactam N-11) | 1.5 | C (A compound having a KD ratio of 0.1 or more and less than 3 is denoted as C) | B (a compound having 3 or more and less than 10 is denoted as B)
CCCN1C(=O)[C@@H]2CCN2C(=O)CN(C)C(=O)[C@H]([C@@H](C)CC)NC(=O)[C@H](CC(C)C)N(C)C(=O)C[C@@H](C(=O)N2CCOCC2)N(C)C(=O)[C@H](C2CCCC2)N(C)C(=O)[C@](C)(CC(C)C)NC(=O)[C@@H]2CCCN2C(=O)[C@H](CCc2cc(F)c(C(F)(F)F)c(F)c2)NC(=O)CN(C)C(=O)[C@@H]1Cc1ccc(C(F)(F)F)cc1 [PP0795] ([NMeL]I[Sar][Aze][NPrPhe(4-CF3)][Sar][hPhe(3,5-F2-4-CF3)]P[αMeL][NMeGly(cPent)][NMeD]-Morpholide; lactam N-11) | 2.5 | C (A compound having a KD ratio of 0.1 or more and less than 3 is denoted as C) | B (a compound having 3 or more and less than 10 is denoted as B)
CCCN1C(=O)[C@@H]2CCN2C(=O)CN(C)C(=O)[C@H]([C@@H](C)CC)NC(=O)[C@H](CC(C)C)N(C)C(=O)C[C@@H](C(=O)N2CCOCC2)N(C)C(=O)[C@H](C2CCCC2)N(C)C(=O)[C@](C)(CC2CCCCC2)NC(=O)[C@@H]2CCCN2C(=O)[C@H](CCc2cc(F)c(C(F)(F)F)c(F)c2)NC(=O)CN(C)C(=O)[C@@H]1Cc1ccc(C(F)(F)F)cc1 [PP0796] ([NMeL]I[Sar][Aze][NPrPhe(4-CF3)][Sar][hPhe(3,5-F2-4-CF3)]P[αMeCha][NMeGly(cPent)][NMeD]-Morpholide; lactam N-11) | 7.5 | C (A compound having a KD ratio of 0.1 or more and less than 3 is denoted as C) | B (a compound having 3 or more and less than 10 is denoted as B)
CCCN1C(=O)[C@@H]2CCN2C(=O)CN(C)C(=O)[C@H]([C@@H](C)CC)NC(=O)[C@H](CC(C)C)N(C)C(=O)C[C@@H](C(=O)N2CCOCC2)N(C)C(=O)[C@H](C2CCCC2)N(C)C(=O)[C@](C)(COC)NC(=O)[C@@H]2CCCN2C(=O)[C@H](CCc2cc(F)c(C(F)(F)F)c(F)c2)NC(=O)CN(C)C(=O)[C@@H]1Cc1ccc(C(F)(F)F)cc1 [PP0798] ([NMeL]I[Sar][Aze][NPrPhe(4-CF3)][Sar][hPhe(3,5-F2-4-CF3)]P[αMeS](Me)[NMeGly(cPent)][NMeD]-Morpholide; lactam N-11) | 1.9 | C (A compound having a KD ratio of 0.1 or more and less than 3 is denoted as C) | B (a compound having 3 or more and less than 10 is denoted as B)
C=CCOC[C@]1(C)NC(=O)[C@@H]2CCCN2C(=O)[C@H](CCc2cc(F)c(C(F)(F)F)c(F)c2)NC(=O)CN(C)C(=O)[C@H](Cc2ccc(C(F)(F)F)cc2)N(CCC)C(=O)[C@@H]2CCN2C(=O)CN(C)C(=O)[C@H]([C@@H](C)CC)NC(=O)[C@H](CC(C)C)N(C)C(=O)C[C@@H](C(=O)N2CCOCC2)N(C)C(=O)[C@H](C2CCCC2)N(C)C1=O [PP0799] ([NMeL]I[Sar][Aze][NPrPhe(4-CF3)][Sar][hPhe(3,5-F2-4-CF3)]P[αMeS](Allyl)[NMeGly(cPent)][NMeD]-Morpholide; lactam N-11) | 1.5 | C (A compound having a KD ratio of 0.1 or more and less than 3 is denoted as C) | B (a compound having 3 or more and less than 10 is denoted as B)
CCCN1C(=O)[C@@H]2CCN2C(=O)CN(C)C(=O)[C@H]([C@@H](C)CC)NC(=O)[C@H](CC(C)C)N(C)C(=O)C[C@@H](C(=O)N2CCOCC2)N(C)C(=O)[C@H](C2CCCC2)N(C)C(=O)[C@](C)(COC(C)(C)C)NC(=O)[C@@H]2CCCN2C(=O)[C@H](CCc2cc(F)c(C(F)(F)F)c(F)c2)NC(=O)CN(C)C(=O)[C@@H]1Cc1ccc(C(F)(F)F)cc1 [PP0800] ([NMeL]I[Sar][Aze][NPrPhe(4-CF3)][Sar][hPhe(3,5-F2-4-CF3)]P[αMeS](tBu)[NMeGly(cPent)][NMeD]-Morpholide; lactam N-11) | 2.7 | C (A compound having a KD ratio of 0.1 or more and less than 3 is denoted as C) | B (a compound having 3 or more and less than 10 is denoted as B)
CCCN1C(=O)[C@@H]2CCN2C(=O)CN(C)C(=O)[C@H]([C@@H](C)CC)NC(=O)[C@H](CC(C)C)N(C)C(=O)C[C@@H](C(=O)N2CCOCC2)N(C)C(=O)[C@H](CC(F)(F)F)N(C)C(=O)C2(CCCC2)NC(=O)[C@@H]2CCCN2C(=O)[C@H](CCc2cc(F)c(C(F)(F)F)c(F)c2)NC(=O)CN(C)C(=O)[C@@H]1Cc1ccc(C(F)(F)F)cc1 [PP0803] ([NMeL]I[Sar][Aze][NPrPhe(4-CF3)][Sar][hPhe(3,5-F2-4-CF3)]P[Ac5c][NMeAbu(4,4,4-F3)][NMeD]-Morpholide; lactam N-11) | 1.7 | C (A compound having a KD ratio of 0.1 or more and less than 3 is denoted as C) | B (a compound having 3 or more and less than 10 is denoted as B)

Stronger by Kd [1], values ahead:

Kd [1] [nM] | SMILES | NRAS/KRAS (ratio of KD value with respect to NRAS to KD value with respect to KRAS) [2] | HRAS/KRAS (ratio of KD value with respect to HRAS to KD value with respect to KRAS) [3]
1.4 | CCCN1C(=O)[C@@H]2CCN2C(=O)CN(C)C(=O)[C@H](C(CC)CC)NC(=O)[C@H](CC(C)C)N(C)C(=O)C[C@@H](C(=O)N2CCOCC2)N(C)C(=O)[C@H](C2CCCC2)N(C)C(=O)C2(CCCC2)NC(=O)[C@@H]2CCCN2C(=O)[C@H](CCc2cc(F)c(C(F)(F)F)c(F)c2)NC(=O)CN(C)C(=O)[C@@H]1Cc1ccc(C(F)(F)F)cc1 [PP0804] ([NMeL][Nva(3-Et)][Sar][Aze][NPrPhe(4-CF3)][Sar][hPhe(3,5-F2-4-CF3)]P[Ac5c][NMeGly(cPent)][NMeD]-Morpholide; lactam N-11) | C (A compound having a KD ratio of 0.1 or more and less than 3 is denoted as C) | B (a compound having 3 or more and less than 10 is denoted as B)
0.9 | CCCN1C(=O)[C@@H]2CCN2C(=O)CN(C)C(=O)[C@H]([C@@H](C)CC)NC(=O)[C@H](CC(C)C)N(C)C(=O)C[C@@H](C(=O)N2CCOCC2)N(C)C(=O)[C@H](C2CCCC2)N(C)C(=O)[C@](C)(C(C)C)NC(=O)[C@@H]2CCCN2C(=O)[C@H](CCc2cc(F)c(C(F)(F)F)c(F)c2)NC(=O)CN(C)C(=O)[C@@H]1Cc1ccc(C(F)(F)F)cc1 [PP0792] ([NMeL]I[Sar][Aze][NPrPhe(4-CF3)][Sar][hPhe(3,5-F2-4-CF3)]P[αMeV][NMeGly(cPent)][NMeD]-Morpholide; lactam N-11) | C (A compound having a KD ratio of 0.1 or more and less than 3 is denoted as C) | B (a compound having 3 or more and less than 10 is denoted as B)
0.45 | CCCN1C(=O)[C@@H]2CCN2C(=O)CN(C)C(=O)[C@H]([C@@H](C)CC)NC(=O)[C@H](CC(C)C)N(C)C(=O)C[C@@H](C(=O)N2CCOCC2)N(C)C(=O)[C@H](C2CCCC2)N(C)C(=O)C2(COC2)NC(=O)[C@@H]2CCCN2C(=O)[C@H](CCc2cc(F)c(C(F)(F)F)c(F)c2)NC(=O)CN(C)C(=O)[C@@H]1Cc1ccc(C(F)(F)F)cc1 [PP0801] ([NMeL]I[Sar][Aze][NPrPhe(4-CF3)][Sar][hPhe(3,5-F2-4-CF3)]P[Ac4c(3-oxa)][NMeGly(cPent)][NMeD]-Morpholide; lactam N-11) | C (A compound having a KD ratio of 0.1 or more and less than 3 is denoted as C) | B (a compound having 3 or more and less than 10 is denoted as B)
0.16 | CCCN1C(=O)CN(C)C(=O)CN(C)C(=O)[C@H]([C@@H](C)CC)NC(=O)[C@H](CC(C)C)N(C)C(=O)C[C@@H](C(=O)N(C)C)N(C)C(=O)[C@H](C2CCCC2)N(C)C(=O)[C@](C)(CC)NC(=O)[C@@H]2CCCN2C(=O)[C@H](CCc2cc(F)c(C(F)(F)F)c(F)c2)NC(=O)CN(C)C(=O)[C@@H]1Cc1ccc(C(F)(F)F)cc1 [PP0805] ([NMeL]I[Sar][Sar][NPrPhe(4-CF3)][Sar][hPhe(3,5-F2-4-CF3)]P[Iva][NMeGly(cPent)][NMeD]-NMe2; lactam N-11) | B (a compound having 3 or more and less than 10 is denoted as B) | C (A compound having a KD ratio of 0.1 or more and less than 3 is denoted as C)
0.082 | CCCN1C(=O)[C@@H]2CCN2C(=O)CN(C)C(=O)[C@H]([C@@H](C)CC)NC(=O)[C@H](CC(C)C)N(C)C(=O)C[C@@H](C(=O)N2CCOCC2)N(C)C(=O)[C@H](C2CCCC2)N(C)C(=O)C2(CC(F)(F)C2)NC(=O)[C@@H]2CCCN2C(=O)[C@H](CCc2cc(F)c(C(F)(F)F)c(F)c2)NC(=O)CN(C)C(=O)[C@@H]1Cc1ccc(C(F)(F)F)cc1 [PP0802] ([NMeL]I[Sar][Aze][NPrPhe(4-CF3)][Sar][hPhe(3,5-F2-4-CF3)]P[Ac4c(3,3-F2)][NMeGly(cPent)][NMeD]-Morpholide; lactam N-11) | C (A compound having a KD ratio of 0.1 or more and less than 3 is denoted as C) | B (a compound having 3 or more and less than 10 is denoted as B)

From US20240158446A1, “CYCLIC COMPOUND HAVING SELECTIVE INHIBITORY ACTION ON KRAS OVER HRAS AND NRAS” (CHUGAI SEIYAKU KABUSHIKI KAISHA, priority 2021, published 2024)
